Results published in patent US20060069132A1, “Azolecarboxamide herbicides” (priority 2004, published 2006).

What was measured:
velvetleaf = assay: Test B pre-/postemergence herbicide test; format: in vivo, Abutilon theophrasti; settings: for Plant response rating (0 to 100 scale), Velvetleaf: 0 is no effect, 100 is complete control, preemergence; for Velvetleaf plant response rating: scale 0 (no effect) to 100 (complete control)
Procedure, shortened: (§1)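 Test chemicals in a non-phytotoxic solvent mixture with surfactant were applied preemergence to seeded species and postemergence to plants 2-18 cm tall (1- to 4-leaf stage); rice and barnyardgrass were also tested in a flooded paddy at the 2-leaf stage. Visual rating versus controls after 13-15 days in greenhouse, scale 0 (no effect) to 100 (complete control).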

morningglory = assay: Test B pre-/postemergence herbicide test; format: in vivo, Ipomoea coccinea; settings: for Plant response rating (0 to 100 scale), Morningglory: 0 is no effect, 100 is complete control, preemergence; for Morningglory plant response rating: scale 0 (no effect) to 100 (complete control)
Procedure, shortened: (§2)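 Flooded paddy rice and barnyardgrass were treated at the 2-leaf stage; upland plantings received compound either on sown seed or on 1- to 4-leaf seedlings. All were kept 13–15 days in a greenhouse and scored visually, 0–100, relative to untreated plants.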

wild oat = assay: Test B postemergence herbicide test; format: in vivo, Avena fatua; settings: scale 0 (no effect) to 100 (complete control)
Procedure, shortened: (§3)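 Visual ratings, 0 (no effect) to 100 (complete control), made versus controls after 13–15 d greenhouse. Paddy plants treated at 2-leaf stage; postemergence plants at 1- to 4-leaf stage, 2–18 cm tall.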

lambsquarters = assay: Test B pre-/postemergence herbicide test; format: in vivo, Chenopodium album; settings: scale 0 (no effect) to 100 (complete control)
Procedure, shortened: as §1

cocklebur = assay: Test B pre-/postemergence herbicide test; format: in vivo, Xanthium strumarium; settings: for Plant response rating (0 to 100 scale), Cocklebur: 0 is no effect, preemergence; for Cocklebur plant response rating: postemergence
Procedure, shortened: as §2

barnyardgrass [1] = assay: Test B flooded paddy test; format: in vivo, Echinochloa crus-galli; settings: 1000 g ai/ha, scale 0 to 100 (0 no effect, 100 complete control)
Procedure, shortened: (§4)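 After treating 2-leaf paddy plants or 2–18 cm postemergence plants (1 to 4 leaves) with formulated chemical, researchers kept them in a greenhouse for 13–15 days. Effects were judged visually versus controls: 0 indicates none, 100 total control.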

large crabgrass = assay: Test B pre-/postemergence herbicide test; format: in vivo, Digitaria sanguinalis; settings: for Plant response rating (0 to 100 scale), Crabgrass, Large: 0 is no effect, preemergence; for Crabgrass, Large plant response rating: postemergence
Procedure, shortened: as §1

ducksalad = assay: Test B flooded paddy test; format: in vivo, Heteranthera limosa; settings: 1000 g ai/ha, scale 0 to 100 (0 no effect, 100 complete control)
Procedure, shortened: as §4

[2] = tested on: small flower umbrella sedge; assay: Test B flooded paddy test; format: in vivo, Cyperus difformis; settings: 1000 g ai/ha, scale 0 to 100 (0 no effect, 100 complete control)
Procedure, shortened: as §4

wheat = assay: Test B postemergence herbicide test; format: in vivo, Triticum aestivum; set-up: key to Wheat plant response rating: 0 = no effect, 100 = complete control
Procedure, shortened: as §3

giant foxtail = assay: Test B pre-/postemergence herbicide test; format: in vivo, Setaria faberi; settings: for Plant response rating (0 to 100 scale), Foxtail, Giant: 0 is no effect, preemergence; for Foxtail, Giant plant response rating: postemergence
Procedure, shortened: as §1

blackgrass = assay: Test B postemergence herbicide test; format: in vivo, Alopecurus myosuroides; settings: postemergence
Procedure, shortened: as §4

pigweed = assay: Test B pre-/postemergence herbicide test; format: in vivo, Amaranthus retroflexus; settings: for Plant response rating (0 to 100 scale), Pigweed: 0 is no effect, 100 is complete control, preemergence; for Pigweed plant response rating: scale 0 (no effect) to 100 (complete control)
Procedure, shortened: as §1

corn = assay: Test B pre-/postemergence herbicide test; format: in vivo, Zea mays; settings: for Plant response rating (0 to 100 scale), Corn: 0 is no effect, preemergence; for Corn plant response rating: postemergence
Procedure, shortened: as §1

rice = assay: Test B flooded paddy test; format: in vivo, Oryza sativa; settings: 1000 g ai/ha, scale 0 to 100 (0 no effect, 100 complete control)
Procedure, shortened: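 Paddy species grown to the 2-leaf stage under flooding; blackgrass sprayed postemergence at 2–18 cm (1- to 4-leaf stage). Plants kept in a greenhouse for 13 to 15 days, then visually rated against controls on 0 (no effect) to 100 (complete control).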

barnyardgrass [3] = assay: Test B pre-/postemergence herbicide test; format: in vivo, Echinochloa crus-galli; settings: for Plant response rating (0 to 100 scale), Barnyardgrass: 0 is no effect, preemergence; for Barnyardgrass plant response rating: postemergence
Procedure, shortened: as §2

Surinam grass = assay: Test B pre-/postemergence herbicide test; format: in vivo, Urochloa decumbens; settings: for Plant response rating (0 to 100 scale), Surinam Grass: 0 is no effect, 100 is complete control, preemergence; for Surinam Grass plant response rating: scale 0 (no effect) to 100 (complete control)
Procedure, shortened: as §1

[4] = 125 g ai/ha, visual rating, postemergence
[5] = 125 g ai/ha, 100 is complete control
[6] = 125 g ai/ha, visual rating, scale 0 (no effect) to 100 (complete control)
[7] = 500 g ai/ha, scale 0 to 100, 0 is no effect, 100 is complete control
[8] = 125 g ai/ha, visual rating, scale 0 (no effect) to 100 (complete control), postemergence
[9] = 500 g ai/ha, scale 0 to 100, 0 no effect, 100 complete control, preemergence
[10] = Postemergence, 500 g ai/ha, scale 0 (no effect) to 100 (complete control)

SMILES | Plant response rating (0 to 100 scale), Velvetleaf (velvetleaf; 125 g ai/ha) | Velvetleaf plant response rating (velvetleaf; [4]) | Velvetleaf plant response rating (velvetleaf; Postemergence, 500 g ai/ha) | Plant response rating (0 to 100 scale), Morningglory (morningglory; 125 g ai/ha) | Morningglory plant response rating (morningglory; [4]) | Morningglory plant response rating (morningglory; Postemergence, 500 g ai/ha) | Oat, Wild plant response rating (wild oat; [4]) | Oat, Wild plant response rating (wild oat; Postemergence, 500 g ai/ha) | Lambsquarters plant response rating (lambsquarters; [4]) | Lambsquarters plant response rating (lambsquarters; Postemergence, 500 g ai/ha) | Plant response rating (0 to 100 scale), Cocklebur (cocklebur; [5]) | Cocklebur plant response rating (cocklebur; [6]) | Cocklebur plant response rating (cocklebur; [7]) | Barnyardgrass plant response rating (barnyardgrass [1]) | Plant response rating (0 to 100 scale), Crabgrass, Large (large crabgrass; [5]) | Crabgrass, Large plant response rating (large crabgrass; [6]) | Crabgrass, Large plant response rating (large crabgrass; [7]) | Ducksalad plant response rating (ducksalad) | Sedge, Umbrella plant response rating [2] | Wheat plant response rating (wheat; [8]) | other results
CCc1nn(C(C)(C)CC)nc1C(=O)Nc1cc(C(=O)N2CC=CC2)ccc1F [Compound 371] | 0 | 10 | 20 | 0 | 40 | 70 | 0 | 10 | 40 | 70 | 0 | 20 | 30 | 30 | 10 | 0 | 10 | 90 | 60 | 0 | Wheat plant response rating (wheat; [9]): 0; Wheat plant response rating (wheat; [10]): 10; Plant response rating (0 to 100 scale), Foxtail, Giant (giant foxtail; [5]): 10; Foxtail, Giant plant response rating (giant foxtail; [6]): 10; Foxtail, Giant plant response rating (giant foxtail; [7]): 20; Blackgrass plant response rating (blackgrass; [6]): 0; Blackgrass plant response rating (blackgrass; [7]): 20; Plant response rating (0 to 100 scale), Pigweed (pigweed; 125 g ai/ha): 0; Pigweed plant response rating (pigweed; [4]): 10; Pigweed plant response rating (pigweed; Postemergence, 500 g ai/ha): 30; Plant response rating (0 to 100 scale), Corn (corn; [5]): 0; Corn plant response rating (corn; [6]): 10; Corn plant response rating (corn; [7]): 10; Rice plant response rating (rice): 40; Plant response rating (0 to 100 scale), Barnyardgrass (barnyardgrass [3]; [5]): 0; Barnyardgrass plant response rating (barnyardgrass [3]; [6]): 0; Barnyardgrass plant response rating (barnyardgrass [3]; [7]): 0; Plant response rating (0 to 100 scale), Surinam Grass (Surinam grass; 125 g ai/ha): 10; Surinam Grass plant response rating (Surinam grass; [4]): 0; Surinam Grass plant response rating (Surinam grass; Postemergence, 500 g ai/ha): 10
CCc1nn(C(C)(C)CC)nc1C(=O)Nc1cccc(OC(F)(F)F)c1 [Compound 374] | 0 | 10 | 20 | 0 | 20 | 20 | 20 | 40 | 10 | 70 | 0 | 0 | 30 | 40 | 0 | 20 | 20 | 50 | 0 | 0 | Wheat plant response rating (wheat; [9]): 0; Wheat plant response rating (wheat; [10]): 20; Plant response rating (0 to 100 scale), Foxtail, Giant (giant foxtail; [5]): 10; Foxtail, Giant plant response rating (giant foxtail; [6]): 20; Foxtail, Giant plant response rating (giant foxtail; [7]): 20; Blackgrass plant response rating (blackgrass; [6]): 10; Blackgrass plant response rating (blackgrass; [7]): 30; Plant response rating (0 to 100 scale), Pigweed (pigweed; 125 g ai/ha): 30; Pigweed plant response rating (pigweed; [4]): 30; Pigweed plant response rating (pigweed; Postemergence, 500 g ai/ha): 70; Plant response rating (0 to 100 scale), Corn (corn; [5]): 0; Corn plant response rating (corn; [6]): 10; Corn plant response rating (corn; [7]): 20; Rice plant response rating (rice): 20; Plant response rating (0 to 100 scale), Barnyardgrass (barnyardgrass [3]; [5]): 0; Barnyardgrass plant response rating (barnyardgrass [3]; [6]): 10; Barnyardgrass plant response rating (barnyardgrass [3]; [7]): 20; Plant response rating (0 to 100 scale), Surinam Grass (Surinam grass; 125 g ai/ha): 10; Surinam Grass plant response rating (Surinam grass; [4]): 10; Surinam Grass plant response rating (Surinam grass; Postemergence, 500 g ai/ha): 20
